“Also recorded” adds a separate entry of the source.
Target: E. coli ODC (Escherichia coli, UniProt P21169)
Assay: E. coli ODC activity assay (HPLC of Put)
Format: biochemical
Experimental: The purification was performed using a modified procedure of earlier publication. E. coli strain DH5α was grown in Luria-Bertani broth at +37 °C with shaking (200 rpm) overnight. The cells were collected by centrifugation and the pellet was homogenized with Potter-Elvehjem in 10 volumes (w/v) of ice-cold 50 mM Tris-HCl pH 7.4, 1 mM DTT. The cell debris was removed by centrifugation at 12,000 g for 30 min at +4 °C. Solid (NH4)2SO4 was added to the supernatant, and the pellet precipitating between 39% and 53% saturation was separated. The precipitate was resuspended in ice-cold buffer containing 50 mM Tris-HCl pH 7.4 and 1 mM DTT and desalted by passage through Sephadex G-25 column (NAP-10 column, GE Healthcare). The protein concentration was measured with Bio-Rad protein reagent, and the partially purified enzyme preparation was mixed with 20% glycerol and aliquoted for storage at −80 °C.
The ADC reaction mixture contained 50 mM Tris-HCl pH 7.8, 4 mM MgCl2, 1 mM DTT, 1.0 or 0.1 mM PLP and 20 μg of partially purified enzyme preparation in a total volume of 162 μL. The ODC reaction mixture contained 50 mM Tris-HCl pH 7.8, 1 mM EDTA, 2.4 mM DTT, 0.1 mM PLP and 20 μg of partially purified enzyme preparation. […] After incubation for 30 min (ADC) or 20 min (ODC) at +40 °C, 20 μL of 50% sulphosalicylic acid containing 50 μM diaminoheptane (internal standard) was added and the samples were analyzed for the content of agmatine (ADC) and Put (ODC) with HPLC as described previously. The kinetic parameters and IC50 values were determined with the aid of GraphPad Prism version 5.03 using nonlinear regression analysis.

E. coli ODC, sequence (P21169 whole entry): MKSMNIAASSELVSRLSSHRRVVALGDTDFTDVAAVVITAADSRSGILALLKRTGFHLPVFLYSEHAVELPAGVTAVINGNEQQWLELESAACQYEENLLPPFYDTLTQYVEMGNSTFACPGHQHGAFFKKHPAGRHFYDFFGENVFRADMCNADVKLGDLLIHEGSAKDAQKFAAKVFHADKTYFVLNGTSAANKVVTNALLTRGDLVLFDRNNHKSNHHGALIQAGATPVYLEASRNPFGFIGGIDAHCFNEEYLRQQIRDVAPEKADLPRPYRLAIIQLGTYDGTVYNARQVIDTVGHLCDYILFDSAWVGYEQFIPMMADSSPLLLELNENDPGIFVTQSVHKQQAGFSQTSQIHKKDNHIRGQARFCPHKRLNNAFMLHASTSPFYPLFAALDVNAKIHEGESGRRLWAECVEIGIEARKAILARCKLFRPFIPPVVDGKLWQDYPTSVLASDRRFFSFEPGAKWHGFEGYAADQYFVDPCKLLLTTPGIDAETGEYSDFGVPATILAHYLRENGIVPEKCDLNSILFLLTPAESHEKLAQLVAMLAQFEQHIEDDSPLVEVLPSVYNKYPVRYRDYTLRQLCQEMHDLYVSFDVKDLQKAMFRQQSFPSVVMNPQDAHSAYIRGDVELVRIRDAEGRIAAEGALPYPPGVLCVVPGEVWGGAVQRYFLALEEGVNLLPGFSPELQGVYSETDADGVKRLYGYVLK

## N=C(N)NCCCON [AO-Agm, 1-aminooxy-3-guanidinopropane]
  Potency towards E. coli ODC relative to E. coli ADC: almost two orders of magnitude less potent; also recorded: almost two orders of magnitude less efficient

Reference: paper PMC7175277, “Hydroxylamine Analogue of Agmatine: Magic Bullet for Arginine Decarboxylase” (Biomolecules, 2020)
